Patent US8188296B2, “Gentisic acid for stabilising 123-I radiopharmaceuticals” (GE Healthcare Limited, priority 2005, dated 2012)

Columns and labels:
Format in all cases: physicochemical
[1] = Radiochemical purity (TLC) of 123I-IBZM solutions stored at ambient temperature, GA vs AA stabiliser (Example 1); conditions: at the moment of use; stabiliser named as label
Description: ^123I-IBZM was prepared by the method of Bobeldijk et al [J. Lab. Comp. Radiopharm., 28, 1247-1256 (1990)]. A small series of ^123I-IBZM solutions was prepared: to each vial 200 μl of ^123I-IBZM in EtOH (925 MBq/cm^3) was added and subsequently 2.3 ml of aqueous phosphate buffer solution optionally containing a stabiliser, in such a way that the resulting ethanol content was 8% and the radioactive concentration at calibration time was 74 MBq/cm^3 (2 mCi/ml).
The vials were stored at ambient temperature and the radiochemical purity (RCP) was determined by thin layer chromatography (TLC) at the time of dilution with phosphate buffer and at 24 and 48 hours afterwards.

[2] = Discolouration / heat sterilisation stability of stabiliser stock solutions
Excerpt: A preferred biocompatible carrier medium for the stabiliser stock solution comprises an aqueous solution at a pH suitable for intravenous administration. A preferred such aqueous solution is a buffer solution, most preferably phosphate buffer. When the radiopharmaceutical is ^123I-IBZM, the pH of the buffered stock solution is suitably pH 5 to 8, preferably 5.4 to 7, most preferably 5.7 to 6.3. As noted above, gentisic acid solutions tend to suffer from discoloration problems. […] The stock solutions may be prepared under non-sterile conditions, followed by terminal sterilisation using e.g. gamma-irradiation, autoclaving, dry heat or chemical treatment (e.g. with ethylene oxide). Alternatively, the stock solutions may be prepared under aseptic manufacture conditions to give the desired sterile, pyrogen-free product. Preferably the sterile stock solutions are prepared by terminal sterilisation, most preferably by autoclaving. Such autoclaving involves steam heating at over 121° C., so represents stress conditions wherein unwanted chemical reactions might be expected. […] It is therefore surprising that the lack of discolouration for gentisic acid can be maintained under such conditions.

[3] = Radiochemical purity of 123I-IBZM solutions made with autoclaved stabiliser stock solutions (Example 3); conditions: stock solution sterilised in an autoclave at 121 °C
Description: Stock solutions of the stabilisers shown were prepared, purged with argon gas and then sealed under argon in a septum-sealed vial with a Teflon™ coated rubber stopper.
The solutions were sterilised by autoclaving for 15 minutes at 121° C., and then allowed to cool to ambient temperature before use.
A small series of ^123I-IBZM solutions was prepared: to each vial ^123I-IBZM in EtOH (925 MBq/cm^3) was added and subsequently an aqueous phosphate buffer solution containing a stabiliser as specified in Table 3 (below), in such a way that the resulting ethanol content was 8% and the radioactive concentration at calibration time was 74 MBq/cm^3 (2 mCi/ml). The RCP of each vial was determined 3 hours after preparation and after storage at room temperature for 51 hours.

[4] = Radiochemical purity of 123I-IBZM vs gentisic acid concentration in stock solution (Example 4, FIG. 1); conditions: 0 to 0.39% w/v gentisic acid, pH 5.8, 74 MBq/ml, room temperature
Description: A phosphate buffer solution (300 ml) was divided into 6 vials each of 50 ml with various amounts of gentisic acid, corresponding to w/v concentrations of 0%, 0.024%, 0.050%, 0.10%, 0.20% and 0.39%. The pH was checked, and if necessary adjusted by the addition of NaOH to obtain a pH of 5.8 (±0.1). The vials were stoppered with Teflon™ coated rubber stoppers and sterilised for 15 min at 121° C.
An ethanolic solution of ^123I-IBZM (activity concentration at REF: 925 MBq/ml (25 mCi/ml)) was divided over 6 vials and into each was added an aliquot of the 6 gentisic acid buffer solutions from step (a) to obtain a final solution with a total activity content of 185 MBq (5 mCi), at a RAC of 74 MBq/ml (2 mCi/ml) and an ethanol content of 8%. The vials were stoppered with a Teflon™ coated rubber stopper and stored at room temperature. The RCP was measured at various time points after EOS.

[5] = Radiochemical purity of 123I-mIBG in phosphate buffer with stabilisers (Example 5); conditions: compared with benzyl alcohol
Description: Two series of 5 vials of ^123I-mIBG solutions were prepared: to each vial an aliquot of 0.5 cm^3 of freshly prepared ^123I-mIBG in (stabiliser-free) Phosphate buffer (360 MBq/cm^3) was added and subsequently an aliquot of 2.0 cm^3 of an aqueous phosphate buffer solution containing a stabiliser as specified in Table 4 (below), followed by mixing. The final mixtures were not heat sterilized. The total activity per vial was 185 MBq with an RAC of 74 MBq/ml. The specific activity was 992 GBq/g mIBG base. Vials A1 to E1 were stored at 40° C. and vials A2 to E2 at 20° C. The RCP was determined at the EOS (end of synthesis) and at 3, 20 and 45 hours thereafter.

Row | Structure (SMILES) | principal radiochemical impurity (free 123I-iodide) in the 123I-IBZM preparation [1] [%] | stability to heat sterilisation (autoclaving, over 121 °C) in buffer solution ([2]; buffer solution) | stabilisation of 123I-IBZM (in words) [3] | stabilisation of 123I-IBZM vs stabiliser concentration (in words) [4] | stabilisation of 123I-MIBG (in words) [5] | discolouration of sterile solutions in aqueous buffer on storage ([2]; oxygen gas in the environment minimised) | discolouration of solutions on autoclave sterilisation ([2]; oxygen not excluded, autoclave)
1 | O=C1O[C@H]([C@@H](O)CO)C(O)=C1O [ascorbic acid, reference compound] | 4 to 5 | does not withstand such heat sterilisation in buffer solution |  |  |  |  | 
2 | O=C(O)c1cc(O)ccc1O [gentisic acid, 2,5-dihydroxybenzoic acid] | 2 to 3 |  | still an effective stabiliser | little or no additional stabilisation benefit is obtained | effective at much lower concentrations than benzyl alcohol | do not discolour even on storage for more than a year | visible discolouration does occur
